In US7323471B1, “Topical azathioprine for the treatment of oral autoimmune diseases” (DOR Biopharma, Inc., priority 1999, dated 2008):

Key:
aphthous stomatitis = conditions: topical administration; cited from earlier work
corneal graft rejections = conditions: topical administration; cited from earlier work
[1] = test system: oral findings due to GVHD
Protocol: Five other patients suffering from oral findings due to GVHD were treated with oral azathioprine solutions, using the method of the present invention. The patients were treated with 5 ml of a solution of AZA (5 mg/ml), three-four times daily. […] One patient (#5) was treated once with an oral rinse, and subsequently with a combination of an AZA rinse and AZA in a gel (5 mg/ml in a 3% methylcellulose base). The patients were not treated with any systemic immunosuppressant or steroid drug. The progress of each patient was reviewed at the times indicated.

parodontosis = conditions: topical administration; cited from earlier work
[2] = 50 mg/ml solution, 60 days at 25° C.; cited from earlier work
[3] = delayed-release oral capsule, improved ileocolonic delivery; cited from earlier work
chronic oral GVHD = experiment: Case report: severe chronic oral GVHD refractory to systemic and topical therapies; conditions: when systemic prednisone was increased; tongue ulceration not resolved
Protocol: They had continuing difficulties with GVHD, including oral involvement.
Oral findings were consistent with pseudomembranous candidiasis, and an ulceration on the left cheek was consistent with minor trauma. […] Acute (grade II) GVHD (skin and liver) was treated with systemic corticosteroids.
Leukoplakia involving the lateral borders of the tongue, consistent with hairy-like leukoplakia, developed. […] Oral changes included findings consistent with GVHD and reactivation of HSV. HSV and candida were confirmed on culture. […] Multiple dilated salivary ducts were visualized on the soft palate. Ulcerations of 3-4 mm in diameter were present on the lateral borders, the dorsum, and the tip of the tongue. […] Biopsy of the ulcer on the cheek was consistent with HSV.
Extensive lichenoid striae with moderate erythema and ulceration involving the lateral tongue on the right and left and the right cheek was seen. A second oral biopsy of lip mucosa and minor salivary glands was completed, which was interpreted as grade II GVHD.
The AZA suspension was made by combining AZA powder with a cherry flavored methylcellulose (1%) suspending vehicle to a final concentration of 5 mg/ml. […]

SMILES	effect in the treatment of aphthous stomatitis (aphthous stomatitis)	effect in the treatment of corneal graft rejections (corneal graft rejections)	reduction in ulceration ([1]; all but one of the GVHD patients of Table 1)	reduction in pain, all the patients ([1]; all five GVHD patients of Table 1)	estimated global improvement, all the patients ([1]; all five GVHD patients of Table 1, compared to condition prior to treatment) [%]	effect in the treatment of parodontosis (parodontosis)	retained share of the initial concentration [2]	systemic bioavailability [3]	oral symptoms and signs (chronic oral GVHD)
Cn1cnc([N+](=O)[O-])c1Sc1ncnc2nc[nH]c12 [AZA, azathioprine]	ineffective	ineffective	at least 50%	at least 50%	≥ 40	some beneficial effect	at least 96%	dramatically reduced systemic bioavailability	
C[C@]12C=CC(=O)C=C1CC[C@@H]1[C@@H]2C(=O)C[C@@]2(C)[C@H]1CC[C@]2(O)C(=O)CO [prednisone]									improved
